# From US11566039B2, “Lincosamide antibiotics and uses thereof” (President and Fellows of Harvard College, priority 2017, dated 2023)
# Read-outs that look alike come from different tables or passages of the source.
# Assays:
# Assay type in all cases: cell-based
# [1] = tested on: S. pyogenes ATCC 19615; assay: MIC against S. pyogenes ATCC 19615
# [2] = tested on: S. aureus ATCC 29213; assay: MIC against S. aureus ATCC 29213
# [3] = tested on: S. pneumoniae ATCC 49619; assay: MIC against S. pneumoniae ATCC 49619
# [4] = tested on: E. coli MP-74 LptD mutant; assay: MIC against E. coli MP-74 LptD mutant
# [5] = tested on: E. coli MP-9 ΔTolC; assay: MIC against E. coli MP-9 ΔTolC
# [6] = tested on: S. aureus MP-549 msr(a) USA 300; assay: MIC against S. aureus MP-549 msr(a) USA 300
# [7] = tested on: H. influenzae ATCC 49247; assay: MIC against H. influenzae ATCC 49247
# [8] = tested on: K. pneumoniae ATCC 10031; assay: MIC against K. pneumoniae ATCC 10031
# [9] = tested on: E. faecalis ATCC 29212; assay: MIC against E. faecalis ATCC 29212
# [10] = tested on: E. coli ATCC 25922; assay: MIC against E. coli ATCC 25922
# [11] = tested on: S. aureus BAA 977 iErmA; assay: MIC against S. aureus BAA 977 iErmA; details: Staphylococcus aureus, BAA977
# [12] = S. aureus MP-549 msr(a) USA 300
# [13] = Streptococcus pyogenes, ATCC19615, S. pyogenes ATCC 19615, read-out: MIC
# [14] = Staphylococcus aureus, ATCC29213, S. aureus ATCC 29213, read-out: MIC
# [15] = Streptococcus pneumoniae, ATCC49619, S. pneumoniae ATCC 49619, read-out: MIC
# [16] = Klebsiella pneumoniae, ATCC10031, read-out: MIC
# [17] = Enterococcus faecalis, ATCC29212, E. faecalis ATCC 29212, read-out: MIC
# [18] = Escherichia coli, ATCC25922, read-out: MIC
# [19] = Staphylococcus aureus, USA300, S. aureus MP-549 msr(a) USA 300
# [20] = Haemophilus influenzae, ATCC49247, H. influenzae ATCC 49247, read-out: MIC
SMILES,"MIC [1, 13] [µg/mL]","MIC [2, 14] [µg/mL]","MIC [3, 15] [µg/mL]",MIC ([5]; Escherichia coli) [µg/mL],"MIC [8, 16] [µg/mL]","MIC [9, 17] [µg/mL]","MIC [10, 18] [µg/mL]",MIC ([4]; Escherichia coli) [µg/mL],"MIC [6, 19] [µg/mL]","MIC [7, 20] [µg/mL]",also measured
CCC[C@@H]1C[C@@H](C(=O)N[C@H]([C@@H]2CCCC2N)[C@H]2OC(SC)[C@H](O)C(O)C2O)N(C)C1 (stereo partly shown) [FSA-217045b],,,,,,,,,,,"MIC ([1]; S. pyogenes ATCC 19615): >64 µg/mL; MIC ([2]; S. aureus ATCC 29213): >64 µg/mL; MIC ([3]; S. pneumoniae ATCC 49619): 32 µg/mL; MIC [4]: >64 µg/mL; MIC [5]: >64 µg/mL; MIC [6, 12]: >64 µg/mL; MIC ([7]; H. influenzae ATCC 49247): >64 µg/mL; MIC [8]: >64 µg/mL; MIC ([9]; E. faecalis ATCC 29212): >64 µg/mL; MIC [10]: >64 µg/mL"
"CCC[C@@H]1C[C@@H](C(=O)N[C@H]([C@H](C)N=[N+]=[N-])[C@H]2OC(SC)[C@H](O)C(O)C2O)N(C)C1 (stereo partly drawn) [FSA-215038, 7-(S)-deoxyazidolincomycin]",0.125,0.25,0.25,> 64,> 64,32,> 64,,,,MIC [11]: 0.5 µg/mL
"CCC[C@@H]1C[C@@H](C(=O)N[C@@H]([C@H]2OC(SC)[C@H](O)C(O)C2O)C(C)(C)C(C)N=[N+]=[N-])N(C)C1 (single isomer, unassigned) [FSA-217021b]",,,,,,,,,,,"MIC ([1]; S. pyogenes ATCC 19615): 0.12 µg/mL; MIC ([2]; S. aureus ATCC 29213): 0.25 µg/mL; MIC ([3]; S. pneumoniae ATCC 49619): 0.12 µg/mL; MIC [4]: 8 µg/mL; MIC [5]: 32 µg/mL; MIC [6, 12]: 0.25 µg/mL; MIC ([7]; H. influenzae ATCC 49247): 32 µg/mL; MIC [8]: >64 µg/mL; MIC ([9]; E. faecalis ATCC 29212): 64 µg/mL; MIC [10]: >64 µg/mL"
CCC[C@@H]1C[C@@H](C(=O)N[C@H](CNCc2ccc(F)cc2)[C@H]2OC(SC)[C@H](O)C(O)C2O)N(C)C1 (stereo partly shown) [FSA-214084],> 64,> 64,> 64,,,> 64,> 64,,,,
C#C[C@@H](NC(=O)[C@@H]1C[C@@H](CCC)CN1C)[C@H]1OC(SC)[C@H](O)C(O)C1O (stereo partly shown) [FSA-217031],8,64,4,> 64,> 64,64,> 64,> 64,32,> 64,
CCC[C@@H]1C[C@@H](C(=O)N[C@H](CNC2CC2)[C@H]2OC(SC)[C@H](O)[C@H](O)C2O)N(C)C1 (stereo partly shown) [FSA-214082b],> 64,> 64,> 64,,,> 64,> 64,,,,
CCC[C@@H]1C[C@@H](C(=O)N2CCC[C@@H]2[C@H]2OC(SC)[C@H](O)C(O)C2O)N(C)C1 (stereo partly shown) [FSA-216092],> 64,> 64,> 64,> 64,> 64,> 64,> 64,> 64,> 64,> 64,
CCC[C@@H]1C[C@@H](C(=O)N[C@H]([C@H](C)NC(=O)CCN)[C@H]2OC(SC)[C@H](O)C(O)C2O)N(C)C1 (stereo partly shown) [FSA-215054],64,> 64,> 64,> 64,> 64,> 64,> 64,,,,MIC [11]: > 64 µg/mL
CCC[C@@H]1C[C@@H](C(=O)N[C@H](CN(C)c2ccc(-c3cccnc3)cc2)[C@H]2OC(SC)[C@H](O)C(O)C2O)N(C)C1 (stereo partly shown) [FSA-215009],32,64,64,,,> 64,> 64,,,,
CCC[C@@H]1C[C@@H](C(=O)N[C@H]([C@H]2C=CCC2)[C@H]2OC(SC)[C@H](O)C(O)C2O)N(C)C1 (stereo partly shown) [FSA-217003],0.5,1,0.5,> 64,> 64,64,> 64,> 64,1,> 64,
CCC[C@@H]1C[C@@H](C(=O)N[C@H](CNCC(F)(F)F)[C@H]2OC(SC)[C@H](O)C(O)C2O)N(C)C1 (stereo partly shown) [FSA-214099],32,64,16,,,> 64,> 64,,,,
"CCC[C@@H]1C[C@@H](C(=O)N[C@H]([C@@H]2CCC(O)C2O)[C@H]2OC(SC)[C@H](O)C(O)C2O)N(C)C1 (single isomer, unassigned) [FSA-217039b]",,,,,,,,,,,"MIC ([1]; S. pyogenes ATCC 19615): 0.5 µg/mL; MIC ([2]; S. aureus ATCC 29213): 4 µg/mL; MIC ([3]; S. pneumoniae ATCC 49619): 1 µg/mL; MIC [4]: >64 µg/mL; MIC [5]: >64 µg/mL; MIC [6, 12]: 8 µg/mL; MIC ([7]; H. influenzae ATCC 49247): >64 µg/mL; MIC [8]: >64 µg/mL; MIC ([9]; E. faecalis ATCC 29212): >64 µg/mL; MIC [10]: >64 µg/mL"
CCC[C@@H]1C[C@@H](C(=O)N[C@H]([C@@H]2CCCC2N)[C@H]2OC(SC)[C@H](O)C(O)C2O)N(C)C1 (stereo partly shown) [FSA-217045a],> 64,> 64,64,> 64,> 64,> 64,> 64,> 64,> 64,> 64,
